Source: US20250296940A1, “ANNULATED 2-AMINO-3-CYANO THIOPHENES AND DERIVATIVES FOR THE TREATMENT OF CANCER” (Boehringer Ingelheim Int'l GmbH Corp., priority 2021, published 2025)

The molecules below were run against T1, protein-protein interaction between SOS1 and KRAS G12C (Homo sapiens, UniProt P01116, C118S/C51S/C80L/G12C) (assay: KRAS::SOS1 AlphaScreen Binding Assay). Settings: Table 19, intermediates C-3/C-4; 7.5 nM KRAS G12C, 10 μM GDP, 5 nM GST-SOS1; read-out: IC50 G12C::SOS 1.
T1 construct: His6 (N); SOS1: in-house or Viva Biotech Ltd; host or cells: E. coli (KRAS)
Description: This assay can be used to examine the potency with which compounds according to the invention binding to KRAS G12C inhibit the protein-protein interaction between SOS1 and KRAS G12C. […] Low IC50 values in this assay setting are indicative of strong inhibition of protein-protein interaction between SOS1 and KRAS:
• GST-tagged SOS1 (564_1049_GST_TEV_ECO) produced in-house • GST-TEV-SOS1 (564-1049) is purchased from Viva Biotech Ltd. • The expression construct of KRAS G12C (amino acids 1-169 of reference sequence P01116-2 (uniprot), with additional mutations: C51S, C80L, and C118S) containing a C-terminal avi-tag was obtained by gene synthesis (GeneArt, Thermo Fisher) in donor vector (pDONR-221) and transferred by recombinant cloning into pDEST17 vector bearing an N-terminal His6-tag. The protein was expressed in E. coli and the purified protein was biotinylated with the E. coli biotin ligase (BirA) before usage. • GDP (Sigma Cat No G7127) • AlphaLISA Glutathione Acceptor Beads (PerkinElmer, Cat No AL109) • AlphaScreen Streptavidin Donor Beads (PerkinElmer Cat No 6760002) • Assay plates: Proxiplate-384 PLUS, white (PerkinElmer, Cat No 6008289)
7.5 nM (final assay concentration) KRAS G12C, 10 μM (final assay concentration) GDP and 5 nM (final assay concentration) GST-SOS1 are mixed in assay buffer prior to use and kept at room temperature.
AlphaLISA Glutathione Acceptor Beads and AlphaScreen Streptavidin Donor Beads are mixed in assay buffer at a concentration of 10 μg/mL (final assay concentration) each prior to use and kept at room temperature.
Compounds are diluted to a final start concentration of 100 μM and are tested in duplicate. Assay-ready plates (ARPs) are generated using an Access Labcyte Workstation with a Labcyte Echo 550 or 555 acoustic dispenser. For compound a start concentration of 100 μM, 150 nL of compound solution is transferred per well in 11 concentrations in duplicate with serial 1:5 dilutions.
The assay is run using a fully automated robotic system in a darkened room below 100 Lux. 10 μL of KRAS::SOS1 GDP mix is added into columns 1-24 to the 150 nL of compound solution (final dilution in the assay 1:100, final DMSO concentration 1%).
After 30 minutes incubation time 5 μL of bead mix is added into columns 1-23. Plates are kept at room temperature in a darkened incubator. After further 60 minutes incubation, the signal is measured using a PerkinElmer Envision HTS Multilabel Reader using the AlphaScreen specifications from PerkinElmer. Each plate contains the following controls: • diluted DMSO+KRAS::SOS1 GDP mix+bead mix • diluted DMSO+KRAS::SOS1 GDP mix
IC50 values are calculated and analyzed using a 4 parametric logistic model.
Tables of example compounds disclosed herein contain IC50 values determined using the above assay.

T1 sequence (P01116 1-169 isoform P01116-2 G12C/C51S/C80L/C118S): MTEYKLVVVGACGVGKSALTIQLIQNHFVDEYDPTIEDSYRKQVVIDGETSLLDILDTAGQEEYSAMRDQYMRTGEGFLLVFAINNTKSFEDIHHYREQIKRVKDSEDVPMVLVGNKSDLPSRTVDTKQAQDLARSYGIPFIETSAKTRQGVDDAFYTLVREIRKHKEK

Row | SMILES | IC50
1 | C[C@H](Oc1cc(N2C[C@H](C)N[C@@H](C)C2)nc(-c2onc3c2CCC[C@@]32CCCc3sc(N)c(C#N)c32)n1)[C@@H]1CCCN1C [C-3a] | 4.6 nM
2 | C[C@H](Oc1cc(N2CCNC3(CC3)C2)nc(-c2onc3c2CCC[C@@]32CCCc3sc(N)c(C#N)c32)n1)[C@@H]1CCCN1C [C-3b] | 2.5 nM
3 | C[C@H](Oc1cc(N2C[C@H](C)NC3(CC3)C2)nc(-c2onc3c2CCC[C@@]32CCCc3sc(N)c(C#N)c32)n1)[C@@H]1CCCN1C [C-3d] | 4.1 nM
4 | C[C@H](Oc1nc(-c2onc3c2CCC[C@@]32CCCc3sc(N)c(C#N)c32)cc(N2CCNC3(CC3)C2)n1)[C@@H]1CCCN1C [C-3e] | 45 nM
5 | C[C@H](Oc1cc(N2C[C@H](C)N[C@@H](C)C2)nc(-c2noc3c2CCC[C@@]32CCCc3sc(N)c(C#N)c32)n1)[C@@H]1CCCN1C [C-4a] | 2.4 nM
6 | C[C@H](Oc1cc(N2CCNC3(CC3)C2)nc(-c2noc3c2CCC[C@@]32CCCc3sc(N)c(C#N)c32)n1)[C@@H]1CCCN1C [C-4b] | 1.9 nM
7 | C[C@H](Oc1nc(-c2noc3c2CCC[C@@]32CCCc3sc(N)c(C#N)c32)cc(N2C[C@H](C)N[C@@H](C)C2)n1)[C@@H]1CCCN1C [C-4c] | 37 nM
8 | C[C@H](Oc1cc(N2CCNCC2)nc(-c2noc3c2CCC[C@@]32CCCc3sc(N)c(C#N)c32)n1)[C@@H]1CCCN1C [C-4d] | 3.2 nM
9 | CNC1CCN(c2cc(O[C@@H](C)[C@@H]3CCCN3C)nc(-c3noc4c3CCC[C@@]43CCCc4sc(N)c(C#N)c43)n2)CC1 [C-4e] | 9 nM
